# “And” between values parts separate entries of the source, which are not always exact repeats. Equal values may be shown once. ± gives the expanded uncertainty stated by the source.
# Settings: Liquid, Vibrating tube method
smiles,measurement,setting,value
CCCCCC(=O)OCC(COC(=O)CCCCC)(COC(=O)CCCCC)COC(=O)CCCCC [pentaerythritol tetrahexanoate],mass density,"303.16 K, 25121 kPa",1003.6 ± 1.2 kg/m3
same,mass density,"303.16 K, 25156 kPa",1003.5 ± 1.2 kg/m3
same,mass density,"303.16 K, 25186 kPa",1003.6 ± 1.2 kg/m3
same,mass density,"303.16 K, 25221 kPa",1003.6 ± 1.2 kg/m3
same,mass density,"303.16 K, 25252 kPa",1003.7 ± 1.2 kg/m3
same,mass density,"303.16 K, 25282 kPa",1003.6 ± 1.2 kg/m3
same,mass density,"303.16 K, 25674 kPa",1003.8 ± 1.2 kg/m3
same,mass density,"303.16 K, 25700 kPa",1003.9 ± 1.2 kg/m3
same,mass density,"303.16 K, 25725 kPa",1003.8 ± 1.2 kg/m3
same,mass density,"303.16 K, 25756 kPa",1003.9 ± 1.2 kg/m3
same,mass density,"303.16 K, 25781 kPa",1004 ± 1.2 kg/m3
same,mass density,"303.16 K, 25807 kPa",1003.9 ± 1.2 kg/m3
same,mass density,"303.16 K, 25838 kPa",1004 ± 1.2 kg/m3
same,mass density,"303.16 K, 25863 kPa",1004 ± 1.2 kg/m3
same,mass density,"303.16 K, 25889 kPa",1004 ± 1.2 kg/m3
same,mass density,"303.16 K, 28629 kPa",1005.5 ± 1.2 kg/m3
same,mass density,"303.16 K, 28934 kPa",1005.7 ± 1.2 kg/m3
same,mass density,"303.16 K, 28965 kPa",1005.6 ± 1.2 kg/m3
same,mass density,"303.16 K, 28991 kPa",1005.6 ± 1.2 kg/m3
same,mass density,"303.16 K, 29017 kPa",1005.6 ± 1.2 kg/m3
same,mass density,"303.16 K, 29049 kPa",1005.7 ± 1.2 kg/m3
same,mass density,"303.16 K, 29076 kPa",1005.7 ± 1.2 kg/m3
same,mass density,"303.16 K, 29102 kPa",1005.7 ± 1.2 kg/m3
same,mass density,"303.16 K, 29134 kPa",1005.8 ± 1.2 kg/m3
same,mass density,"303.16 K, 29162 kPa",1005.6 ± 1.2 kg/m3
same,mass density,"303.16 K, 29189 kPa",1005.7 ± 1.2 kg/m3
same,mass density,"303.16 K, 29220 kPa",1005.8 ± 1.2 kg/m3
same,mass density,"303.16 K, 29244 kPa",1005.8 ± 1.2 kg/m3
same,mass density,"303.16 K, 29266 kPa",1005.9 ± 1.2 kg/m3
same,mass density,"303.16 K, 29288 kPa",1005.9 ± 1.2 kg/m3
same,mass density,"303.16 K, 29315 kPa",1005.9 ± 1.2 kg/m3
same,mass density,"303.16 K, 29338 kPa",1005.9 ± 1.2 kg/m3
same,mass density,"303.16 K, 29360 kPa",1005.9 ± 1.2 kg/m3
same,mass density,"303.16 K, 29388 kPa",1005.8 ± 1.2 kg/m3
same,mass density,"303.16 K, 29410 kPa",1006 ± 1.2 kg/m3
same,mass density,"303.16 K, 29438 kPa",1005.9 ± 1.2 kg/m3
same,mass density,"303.16 K, 30312 kPa",1006.3 ± 1.2 kg/m3
same,mass density,"303.16 K, 30341 kPa",1006.5 ± 1.2 kg/m3
same,mass density,"303.16 K, 30365 kPa",1006.5 ± 1.2 kg/m3
same,mass density,"303.16 K, 30389 kPa",1006.5 ± 1.2 kg/m3
same,mass density,"303.16 K, 30419 kPa",1006.6 ± 1.2 kg/m3
same,mass density,"303.16 K, 30445 kPa",1006.4 ± 1.2 kg/m3
same,mass density,"303.16 K, 30470 kPa",1006.4 ± 1.2 kg/m3
same,mass density,"303.16 K, 30494 kPa",1006.6 ± 1.2 kg/m3
same,mass density,"303.16 K, 30523 kPa",1006.6 ± 1.2 kg/m3
same,mass density,"303.16 K, 30548 kPa",1006.6 ± 1.2 kg/m3
same,mass density,"303.16 K, 30572 kPa",1006.6 ± 1.2 kg/m3
same,mass density,"303.16 K, 30602 kPa",1006.5 ± 1.2 kg/m3
same,mass density,"303.16 K, 30627 kPa",1006.6 ± 1.2 kg/m3
same,mass density,"303.16 K, 30652 kPa",1006.6 ± 1.2 kg/m3
same,mass density,"303.16 K, 30681 kPa",1006.5 ± 1.2 kg/m3
same,mass density,"303.16 K, 30706 kPa",1006.7 ± 1.2 kg/m3
same,mass density,"303.16 K, 30731 kPa",1006.5 ± 1.2 kg/m3
same,mass density,"303.16 K, 30761 kPa",1006.7 ± 1.2 kg/m3
same,mass density,"303.16 K, 30788 kPa",1006.6 ± 1.2 kg/m3
same,mass density,"303.16 K, 30813 kPa",1006.6 ± 1.2 kg/m3
same,mass density,"303.16 K, 30838 kPa",1006.7 ± 1.2 kg/m3
same,mass density,"303.16 K, 30868 kPa",1006.7 ± 1.2 kg/m3
same,mass density,"303.16 K, 30893 kPa",1006.6 ± 1.2 kg/m3
same,mass density,"303.16 K, 30923 kPa",1006.7 ± 1.2 kg/m3
same,mass density,"303.16 K, 30949 kPa",1006.7 ± 1.2 kg/m3
same,mass density,"303.16 K, 30974 kPa",1006.7 ± 1.2 kg/m3
same,mass density,"303.16 K, 31005 kPa",1006.9 ± 1.2 kg/m3
same,mass density,"303.16 K, 31031 kPa",1006.7 ± 1.2 kg/m3
same,mass density,"303.16 K, 31057 kPa",1006.7 ± 1.2 kg/m3
same,mass density,"303.16 K, 31087 kPa",1006.8 ± 1.2 kg/m3
same,mass density,"303.16 K, 31114 kPa",1006.8 ± 1.2 kg/m3
same,mass density,"303.16 K, 31140 kPa",1006.9 ± 1.2 kg/m3
same,mass density,"303.16 K, 32264 kPa",1007.5 ± 1.2 kg/m3
same,mass density,"303.16 K, 32284 kPa",1007.6 ± 1.2 kg/m3
same,mass density,"303.16 K, 32306 kPa",1007.5 ± 1.2 kg/m3
same,mass density,"303.16 K, 32325 kPa",1007.5 ± 1.2 kg/m3
same,mass density,"303.16 K, 32343 kPa",1007.5 ± 1.2 kg/m3
same,mass density,"303.16 K, 32366 kPa",1007.5 ± 1.2 kg/m3
same,mass density,"303.16 K, 32385 kPa",1007.4 ± 1.2 kg/m3
same,mass density,"303.16 K, 32914 kPa",1007.8 ± 1.2 kg/m3
same,mass density,"303.16 K, 32937 kPa",1007.9 ± 1.2 kg/m3
same,mass density,"303.16 K, 32956 kPa",1007.7 ± 1.2 kg/m3
same,mass density,"303.16 K, 32976 kPa",1007.7 ± 1.2 kg/m3
same,mass density,"303.16 K, 33185 kPa",1007.9 ± 1.2 kg/m3
same,mass density,"303.16 K, 33209 kPa",1008 ± 1.2 kg/m3
same,mass density,"303.16 K, 33228 kPa",1008 ± 1.2 kg/m3
same,mass density,"303.16 K, 33252 kPa",1007.9 ± 1.2 kg/m3
same,mass density,"303.16 K, 33272 kPa",1008.1 ± 1.2 kg/m3
same,mass density,"303.16 K, 33292 kPa",1008 ± 1.2 kg/m3
same,mass density,"303.16 K, 33317 kPa",1007.9 ± 1.2 kg/m3
same,mass density,"303.16 K, 33337 kPa",1008.1 ± 1.2 kg/m3
same,mass density,"303.16 K, 33357 kPa",1008.1 ± 1.2 kg/m3
same,mass density,"303.16 K, 33377 kPa",1008.1 ± 1.2 kg/m3
same,mass density,"303.16 K, 33402 kPa",1008.1 ± 1.2 kg/m3
same,mass density,"303.16 K, 33423 kPa",1008 ± 1.2 kg/m3
same,mass density,"303.16 K, 33443 kPa",1008.1 ± 1.2 kg/m3
same,mass density,"303.16 K, 33467 kPa",1008.1 ± 1.2 kg/m3
same,mass density,"303.16 K, 33487 kPa",1008.1 ± 1.2 kg/m3
same,mass density,"303.16 K, 33512 kPa",1008.1 ± 1.2 kg/m3
same,mass density,"303.16 K, 33533 kPa",1008.1 ± 1.2 kg/m3
same,mass density,"303.16 K, 33553 kPa",1008.1 ± 1.2 kg/m3
same,mass density,"303.16 K, 33574 kPa",1008.3 ± 1.2 kg/m3
same,mass density,"303.16 K, 33599 kPa",1008.2 ± 1.2 kg/m3
same,mass density,"303.16 K, 33621 kPa",1008.2 ± 1.2 kg/m3
same,mass density,"303.16 K, 33642 kPa",1008.3 ± 1.2 kg/m3
same,mass density,"303.16 K, 33668 kPa",1008.3 ± 1.2 kg/m3
same,mass density,"303.16 K, 33689 kPa",1008.3 ± 1.2 kg/m3
same,mass density,"303.16 K, 33711 kPa",1008.2 ± 1.2 kg/m3
same,mass density,"303.16 K, 33733 kPa",1008.1 ± 1.2 kg/m3
same,mass density,"303.16 K, 33759 kPa",1008.2 ± 1.2 kg/m3
same,mass density,"303.16 K, 33782 kPa",1008.3 ± 1.2 kg/m3
same,mass density,"303.16 K, 33805 kPa",1008.2 ± 1.2 kg/m3
same,mass density,"303.16 K, 33833 kPa",1008.2 ± 1.2 kg/m3
same,mass density,"303.16 K, 33857 kPa",1008.4 ± 1.2 kg/m3
same,mass density,"303.16 K, 33886 kPa",1008.2 ± 1.2 kg/m3
same,mass density,"303.17 K, 238.4 kPa",988.6 ± 1.2 kg/m3
same,mass density,"303.17 K, 238.6 kPa",988.5 ± 1.2 kg/m3
same,mass density,"303.17 K, 239.1 kPa",988.5 ± 1.2 kg/m3
same,mass density,"303.17 K, 272.8 kPa",988.5 ± 1.2 kg/m3
same,mass density,"303.17 K, 273 kPa",988.7 ± 1.2 kg/m3
same,mass density,"303.17 K, 273.3 kPa",988.6 ± 1.2 kg/m3
same,mass density,"303.17 K, 273.5 kPa",988.6 ± 1.2 kg/m3
same,mass density,"303.17 K, 273.6 kPa",988.6 ± 1.2 kg/m3
same,mass density,"303.17 K, 355.5 kPa",988.6 ± 1.2 kg/m3
same,mass density,"303.17 K, 355.8 kPa",988.5 ± 1.2 kg/m3
same,mass density,"303.17 K, 356.5 kPa",988.6 ± 1.2 kg/m3
same,mass density,"303.17 K, 356.8 kPa",988.5 ± 1.2 kg/m3
same,mass density,"303.17 K, 357.2 kPa",988.6 ± 1.2 kg/m3
same,mass density,"303.17 K, 357.5 kPa",988.6 ± 1.2 kg/m3
same,mass density,"303.17 K, 361 kPa",988.7 ± 1.2 kg/m3
same,mass density,"303.17 K, 361.7 kPa",988.5 ± 1.2 kg/m3
same,mass density,"303.17 K, 362 kPa",988.6 ± 1.2 kg/m3
same,mass density,"303.17 K, 362.4 kPa",988.5 ± 1.2 kg/m3
same,mass density,"303.17 K, 362.7 kPa",988.6 ± 1.2 kg/m3
same,mass density,"303.17 K, 363.1 kPa",988.6 ± 1.2 kg/m3
same,mass density,"303.17 K, 363.8 kPa",988.7 ± 1.2 kg/m3
same,mass density,"303.17 K, 364 kPa",988.7 ± 1.2 kg/m3
same,mass density,"303.17 K, 375.4 kPa",988.5 ± 1.2 kg/m3
same,mass density,"303.17 K, 376.3 kPa",988.6 ± 1.2 kg/m3
same,mass density,"303.17 K, 376.5 kPa",988.7 ± 1.2 kg/m3 and 988.6 ± 1.2 kg/m3
same,mass density,"303.17 K, 377.2 kPa",988.6 ± 1.2 kg/m3
same,mass density,"303.17 K, 378.5 kPa",988.6 ± 1.2 kg/m3
same,mass density,"303.17 K, 1469.1 kPa",989.4 ± 1.2 kg/m3
same,mass density,"303.17 K, 1484.4 kPa",989.2 ± 1.2 kg/m3
same,mass density,"303.17 K, 1497.4 kPa",989.2 ± 1.2 kg/m3
same,mass density,"303.17 K, 1510.5 kPa",989.4 ± 1.2 kg/m3
same,mass density,"303.17 K, 1526.6 kPa",989.4 ± 1.2 kg/m3
same,mass density,"303.17 K, 1540 kPa",989.3 ± 1.2 kg/m3
same,mass density,"303.17 K, 1553.5 kPa",989.4 ± 1.2 kg/m3
